PubChem BioAssay (NCI)
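Five concentrations, 48 hours, 96-well plates. GI50: concentration for 50% inhibition of growth. Definition used: TGI = concentration required for complete inhibition of growth.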

Assays:
Assay in all cases: inhibition of tumour cell growth, NCI panel, 48 h
XF 498 CNS = system: XF 498 CNS
HOP-18 NSCLC = system: HOP-18 NSCLC
RXF-631 renal = system: RXF-631 renal
LXFL 529 NSCLC = system: LXFL 529 NSCLC
DLD-1 colon = system: DLD-1 colon

| SMILES | TGI (XF 498 CNS) [µM] | TGI (HOP-18 NSCLC) [µM] | TGI (RXF-631 renal) [µM] | TGI (LXFL 529 NSCLC) [µM] | GI50 (RXF-631 renal) [µM] | TGI (DLD-1 colon) [µM] |
| --- | --- | --- | --- | --- | --- | --- |
| CCCCC1(C)C=C/C(=C2/C(=O)O/C(=C\C(=O)O)C2=O)O1 (centres undefined) | > 100 | > 100 | > 100 | > 100 |  |  |
| C=C1CCC2[C@@H](CCC3[C@]2(C)CCC[C@]3(C)C(=O)OC)C1CC=O (some centres undefined) | 28.6 | 29 | 37.2 | 30.1 | 20.9 | 42.9 |
| COC(=O)[C@@]1(C(C)CC(=O)O)CCCCC1=O (some centres undefined) | > 100 | > 100 |  | > 100 |  | > 100 |
| C/C=C/C#CC#C/C=C/C=C/C(O)CCO (centres undefined) | > 23.1 | > 23.1 |  | > 23.1 |  | > 23.1 |
| O=C(c1nc2ccccc2[nH]c1=O)C(O)c1ccccc1 (centres undefined) |  |  |  | > 100 |  | > 100 |
| COc1ccc(CCC2c3cc(OC)c(OC)cc3CCN2C)cc1OC (centres undefined) |  | > 100 |  | > 100 |  | > 100 |
| CCN(CC)c1ccc2c(c1)Oc1ccc(N(CC)CC)cc1C21Oc2ccccc2-c2c1c1ccccc1n2CC (centres undefined) | 4.08 | > 100 | > 100 | > 100 |  | > 100 |
| CC1(C)CC(=O)C(/C(=N/NC(=S)NN)C(=O)Nc2nc3ccc([N+](=O)[O-])cc3s2)C(=O)C1 | > 100 | > 100 |  | > 100 |  | > 100 |
| COc1ccc(/C=C2\CCC(C)(CN(C)C)C2=O)cc1OC (centres undefined) |  | > 100 | > 100 | > 100 |  | > 100 |
| CCOC(=O)/C(C#N)=C(O)/C(=C\c1ccc(Br)cc1)NC(=O)c1ccccc1 |  | > 100 | > 100 | > 100 |  | > 100 |
| O=C(CCC1C(=O)NC(=S)NC1=O)c1ccc2ccccc2c1 |  | > 100 |  | > 100 |  | > 100 |
| CN(C)C(=NCc1ccccc1)NC#N |  |  |  | > 100 |  | > 100 |
| O=C1Nc2ccccc2N=CC1NC(=O)C(c1ccccc1)c1ccccc1 (centres undefined) |  | > 100 | > 100 | > 100 |  | > 100 |
| CC1(c2ccccc2Cl)C(C#N)C(=O)NC(=O)C1C#N (centres undefined) |  |  |  | > 100 |  | > 100 |
| NC(=O)C(=O)C1CCC2=C(Sc3ccccc3N2)C1=O (centres undefined) |  |  | > 100 | > 100 |  | > 100 |
| CCOP1(=O)C=C(C)C(Cl)=C(C)C1 (centres undefined) | 75.2 | > 100 | 30.5 | 44.5 |  | > 100 |
| Cc1ccccc1NC(=O)C(=O)C(C#N)c1ccccc1C (centres undefined) | > 100 | > 100 |  | > 100 |  | > 100 |
| C/C(=C\CBr)CCC(Br)C(C)(C)Cl (centres undefined) |  | > 100 |  | > 100 |  | > 100 |
| Nc1c([N+](=O)[O-])nc(Cl)c2nncn12 | > 100 | > 100 | > 100 | > 100 |  | > 100 |
| CC12CCC(=O)N1c1ccc([N+](=O)[O-])cc1N2 (centres undefined) |  | > 100 |  | > 100 |  | > 100 |
